This passage reports fluorescence lifetime results from the Deep4Chem optical property database.

The data set in a line: solvent given as SMILES.

In the case of `N#Cc1ccc(C2=CC3=c4cc(-c5ccc(C#N)cc5)c5nc(C(F)(F)C(F)(F)C(F)(F)F)nc6c(-c7ccc(C#N)cc7)cc(c4c65)C4=CC(c5ccc(C#N)cc5)=C5N=C(C(F)(F)C(F)(F)C(F)(F)F)N=C2C5C43)cc1` (centres undefined), the fluorescence lifetime (in C1CCOC1) was determined as 2.8 ns.

For the compound `Brc1c(Br)c2ccc3c(Br)c(Br)c4ccc5ccc1c1c5c4c3c21`, the fluorescence lifetime (in C1CCCCC1) turned out to be 0.058 ns.

The compound `F[B-]1(F)OC(c2ccc(N3CCCC3)cc2)=Cc2cccc[n+]21` registered a fluorescence lifetime (in ClC(Cl)Cl) of 2.72 ns.

Compound `CCCCCCn1c2ccccc2c2cc(-c3ccc(-c4cc(-c5ccccn5)nc(-c5ccccn5)c4)cc3)ccc21` came in with a fluorescence lifetime (in ClCCl) of 1.51 ns.

`CC(C)(C)c1ccc(Oc2c3c4c(cc(Oc5ccc(C(C)(C)C)cc5)c5c6c(Oc7ccc(C(C)(C)C)cc7)c(Oc7ccc(C(C)(C)C)cc7)c7c8c(cc(Oc9ccc(C(C)(C)C)cc9)c(c(c2Oc2ccc(C(C)(C)C)cc2)c45)c86)C(=O)OC7=O)C(=O)OC3=O)cc1`: the fluorescence lifetime (in ClC(Cl)Cl) worked out at 6 ns.

`CCN(CC)c1ccc2cc(/C=C/C(=C(C#N)C#N)c3ccc(N(c4ccccc4)c4ccccc4)cc3)c(=O)oc2c1` showed a fluorescence lifetime (in CC(C)=O) of 0.59 ns; a fluorescence lifetime (in CCOC(C)=O) of 1.31 ns; a fluorescence lifetime (in CN(C)C=O) of 0.33 ns; a fluorescence lifetime (in CS(C)=O) of 0.33 ns; a fluorescence lifetime (in Cc1ccccc1) of 0.84 ns; a fluorescence lifetime (in ClCCl) of 2.88 ns.

On to `COC(=O)C[C@H](Cc1c[nH]c2ccccc12)NC(=O)[C@H](CC(=O)N[C@@H](CC1=CCc2ccccc21)C(=O)OC)NC(=O)[C@H](Cc1c[nH]c2ccccc12)NC(=O)OC(C)(C)C`, for which the fluorescence lifetime reads like this: (in CC#N) 2.67 ns; (in CCOC(C)=O) 2.08 ns; (in CO) 1.86 ns.

`CC(C)c1cccc(C(C)C)c1N1C(=O)c2cc(Cl)c3c4c(Cl)cc5c6c(cc(Cl)c(c7c(Cl)cc(c2c37)C1=O)c64)C(=O)N(c1c(C(C)C)cccc1C(C)C)C5=O` had a fluorescence lifetime (in Cc1ccccc1) of 5.11 ns.

For the compound `COc1ccc2ccc(O)cc2c1`, where the note is “in O”, the fluorescence lifetime was found to be 8.33 ns.

With `CC(C)[Si]1(C(C)C)c2cc(C=C(C#N)C#N)ccc2-c2ccc(N(C)C)cc21`, the fluorescence lifetime is, setting by setting: (in C1CCCCC1) 0.3 ns; (in ClCCl) 3.2 ns.

In turn, `c1ccc2c(c1)c1ccc3cccc4c3c1c2c1c2cccc3ccc5c6ccccc6c(c5c32)c41` had a fluorescence lifetime (in ClCCl) of 0.75 ns.

Take `C[n+]1ccn(CCCCc2ccc3c(c2)c2ccccc2n3-c2cc(C#N)c(C#N)cc2-n2c3ccccc3c3cc(CCCCn4cc[n+](C)c4)ccc32)c1`: the fluorescence lifetime (in CC#N) worked out at 4.97 ns.

Where the note is “in CC#N”, `C[n+]1ccc(-c2cc[n+](C)cc2)cc1` gave a fluorescence lifetime of 0.9 ns.

For `CC1(C)c2ccccc2N(c2ccc(C(=CC#N)c3ccc(N4c5ccccc5C(C)(C)c5ccccc54)cc3)cc2)c2ccccc21`, where the note is “in Cc1ccccc1”, the fluorescence lifetime was found to be 5.09 ns.

Regarding `C(=C\c1ccc(/C=C/c2ccc(N(c3ccccc3)c3ccccc3)cc2)c2nsnc12)/c1ccc(N(c2ccccc2)c2ccccc2)cc1`, the fluorescence lifetime runs as follows: (in C1CCOC1) 4.53 ns; (in CCOC(C)=O) 4.74 ns; (in CN(C)C=O) 2.75 ns; (in Cc1ccccc1) 4.29 ns; (in ClC(Cl)Cl) 4.21 ns; (in ClCCl) 4.1 ns.

Turning to `C#Cc1ccc2ccc3cccc4ccc1c2c34`, the fluorescence lifetime (in C1CCCCC1) is 14.9 ns, the fluorescence lifetime (in CC#N) amounted to 13.4 ns, the fluorescence lifetime (in CO) turned out to be 17.8 ns and the fluorescence lifetime (in ClCCl) worked out at 20.5 ns.

Take `CCCCC(CC)COc1ccc2nc(-c3ccc(-c4cccs4)s3)sc2c1` (centres undefined): under “in ClCCl”, the fluorescence lifetime was 0.42 ns.

In turn, `CCCCC(CC)Cn1c2cc(C#N)ccc2c2cc(-c3ccc(N(c4ccccc4)c4ccccc4)cc3)c(C#N)cc21` (centres undefined) returned a fluorescence lifetime (in ClCCl) of 7.59 ns.

Where the note is “in ClCCl”, `CC(C)(C)NC(=O)c1ccc2ccc3cccc4c3c2c1c1c2ccccc2c2ccccc2c41` returned a fluorescence lifetime of 11.9 ns.

In turn, `CCN(CC)c1ccc(-c2nc3c4ccccc4n(C)c3nc2-c2ccc(B(c3c(C)cc(C)cc3C)c3c(C)cc(C)cc3C)cc2)cc1` returned a fluorescence lifetime (in C1CCOC1) of 9.21 ns.

Compound `c1ccc2c(c1)[nH]c1ncccc12` displayed a fluorescence lifetime (in CC#N) of 13.3 ns and a fluorescence lifetime (in CCCCCC) of 9.1 ns.

Regarding `CC(C)(C)c1ccc2c(c1)c1cc(C(C)(C)C)ccc1n2-c1ccc(-c2ccc3c(c2)C2(c4cc(-c5ccc(-n6c7ccc(C(C)(C)C)cc7c7cc(C(C)(C)C)ccc76)cc5)ccc4-3)c3ccccc3S(=O)(=O)c3ccccc32)cc1`, where the note is “in ClCCl”, the fluorescence lifetime was found to be 1.8 ns.

Regarding `CN(C)c1ccc(-c2nc(C#N)c(C#N)n2C)cc1`, the fluorescence lifetime stood at 1.3 ns (in C1CCCCC1) and 3.5 ns (in ClC(Cl)Cl).

As to `CNc1cccc2c1-c1ccccc1C2=O`, the fluorescence lifetime was 8.8 ns (in C1CCCCC1), 2.2 ns (in CC#N) and 8.4 ns (in c1ccccc1).

`CCC1(CC)c2cc(B(c3c(C)cc(C)cc3C)c3c(C)cc(C)cc3C)ccc2-c2c1c1c(c3c2C(CC)(CC)c2cc(N(c4ccccc4)c4ccccc4)ccc2-3)C(CC)(CC)c2cc(N(c3ccccc3)c3ccccc3)ccc2-1` gave a fluorescence lifetime (in C1CCOC1) of 14.4 ns.

With `CC(=O)OC[C@@H]1O[C@H](N2C=CC3=Nc4nc(C)[n+](C)cc4CN3C2=O)[C@@H](O)[C@H]1O`, the fluorescence lifetime runs as follows: (in CC#N) 3.92 ns; (in O) 1.04 ns.

With `COC(=O)c1[nH]c(-c2ccc(Br)cc2)c2nnc3ccc(OC)cc3c12`, the fluorescence lifetime (in ClCCl) was 0.58 ns.

On to `COc1ccc(C2=c3sc(-c4ccc(OC)cc4)c(-c4ccc(OC)cc4)c3=[N+]3C2=Nc2c(-c4ccc(OC)cc4)c4sc(-c5ccc(OC)cc5)c(-c5ccc(OC)cc5)c4n2[B-]3(F)F)cc1`, for which the fluorescence lifetime (in ClC(Cl)Cl) was 1.53 ns.

Consider `c1ccc(/C(=C(\c2ccccc2)c2ccccc2-c2ccccc2)c2ccccc2-c2ccccc2)cc1`, for which the fluorescence lifetime (in C1CCOC1) came out at 4.7 ns.

Consider `Cc1ccc2ccc3c(C)ccc4ccc1c2c43`, for which the fluorescence lifetime is, setting by setting: (in CCCCCC) 54.7 ns; (in CO) 64.5 ns; (in ClCCl) 37.6 ns.

The compound `CC(O)CC1=N/C(=C\c2cccc(N(C)C)c2)C(=O)N1C` (centres undefined) showed a fluorescence lifetime (in C1CCOC1) of 13.2 ns, a fluorescence lifetime (in CC#N) of 5.2 ns and a fluorescence lifetime (in CCCCCC) of 18.9 ns.

As to `CC1=CC(/C=C/c2ccc([N+](C)(C)C)cc2)=[N+]2C1=C(c1ccc(C#CCO[C@@H]3O[C@H](CO)[C@@H](O)C(O)[C@H]3O)cc1)c1c(C)cc(/C=C/c3ccc([N+](C)(C)C)cc3)n1[B-]2(F)F` (some centres undefined), the fluorescence lifetime (in CC#N) is 5.3 ns.

For the compound `CSc1ccc(C#Cc2ccc(C#Cc3ccc(C#Cc4ccccc4C#N)cc3C#N)cc2C#N)cc1`, the fluorescence lifetime (in ClC(Cl)Cl) was found to be 1.29 ns.

Regarding `Cc1ccc(C2=C3C=CC(C#Cc4ccccc4)=[N+]3[B-](F)(F)n3c(C#Cc4ccccc4)ccc32)cc1`, the fluorescence lifetime runs as follows: (in C1CCCCC1) 6.58 ns; (in C1CCOC1) 6.62 ns; (in C1COCCO1) 6.44 ns; (in CCOC(C)=O) 6.74 ns; (in CO) 6.51 ns; (in Cc1ccccc1) 6.18 ns. Also, the fluorescence lifetime (in ClC(Cl)Cl) came out at 6.66 ns.

As for `Cc1ccccc1C1=C2C=c3c(oc4ccccc34)=[N+]2[B-](F)(F)n2c1cc1c3ccccc3oc12`, the fluorescence lifetime is 4.21 ns (in C1CCCCC1), 4.41 ns (in CCOC(C)=O) and 4.44 ns (in CO).

Take `CC[n+]1c(C=C2C(=O)C(C=C3N(C)c4ccccc4C3(C)C)=C2[O-])sc2ccccc21`: the fluorescence lifetime runs as follows: (in CO) 0.24 ns; (in ClC(Cl)Cl) 1.95 ns.

As to `CNc1cccc2c1C(=O)c1ccccc1-2`, the fluorescence lifetime turned out to be 1.6 ns (in C1CCCCC1), 4.2 ns (in CC#N), 2.8 ns (in CCO) and 2.8 ns (in c1ccccc1).

For `Cc1ccc(C2=C3C=CC(C#Cc4ccccc4)=[N+]3[B-](F)(F)n3c(Cl)ccc32)cc1`, the fluorescence lifetime reads like this: (in C1CCCCC1) 4.31 ns; (in C1CCOC1) 4.24 ns; (in C1COCCO1) 4.43 ns; (in CCOC(C)=O) 4.34 ns; (in CO) 4.25 ns; (in Cc1ccccc1) 4.45 ns. The same compound displayed a fluorescence lifetime (in ClC(Cl)Cl) of 4.73 ns.

Regarding `c1ccc(-n2cccc2)cc1`, the fluorescence lifetime by setting is: (in CC#N) 3.6 ns; (in CCCCCC) 3.5 ns.

On to `CCCCCCCCCCCCN1C(=O)c2c(c3ccc4cc(-c5ccc(N(C)C)cc5)c(OC)cc4c3c3c2ccc2cc(-c4ccc(N(C)C)cc4)c(OC)cc23)C1=O`, for which the fluorescence lifetime (in ClCCl) amounted to 5.85 ns.

Where the note is “in ClCCl”, `COC(=O)c1cc(=O)n(C)c2cc(-c3cccc(N(C)C)c3)sc12` came in with a fluorescence lifetime of 2.64 ns.

`CN1CCc2cc(C3=Cc4cccc[n+]4[B-](F)(F)O3)ccc21` displayed a fluorescence lifetime (in ClC(Cl)Cl) of 3.11 ns.

Consider `COc1nc(Nc2ccc3cc4ccccc4cc3c2)nc(OC)n1`, for which the fluorescence lifetime was determined as 12.2 ns (in C1COCCO1) and 8.2 ns (in CCOC(C)=O).

As to `CC1=CC(C)=[N+]2C1=Cc1c3ccccc3c(C#Cc3cccs3)n1[B-]2(F)F`, the fluorescence lifetime is 4.69 ns (in CCCCCC), 3.74 ns (in CCCCCCCCO), 4.07 ns (in CCOC(C)=O) and 3.46 ns (in CN(C)C=O).

As to `CC1(C)CC(/N=C/c2ccc3ccc4cccc5ccc2c3c45)CC(C)(C)N1`, the fluorescence lifetime amounted to 7.3 ns (in C1CCCCC1), 2.9 ns (in CC#N), 2.6 ns (in CO) and 0.3 ns (in ClC(Cl)Cl).

The compound `CN(C)c1ccc2nc(-c3ccccc3)sc2c1` displayed a fluorescence lifetime (in C1CCCCC1) of 2.1 ns.

On to `CCCn1c2cccc3c2[c+]2c4c1cccc4n(CCC)c1cccc(c12)n3CCC`, for which the fluorescence lifetime runs as follows: (in CC#N) 7.5 ns; (in CO) 9.9 ns; (in ClCCl) 6.3 ns; (in OCC(O)CO) 11 ns.

As for `CN(C)CCCN1c2ccccc2Sc2ccccc21`, the fluorescence lifetime runs as follows: (in CC#N) 1.85 ns; (in CO) 1.75 ns; (in O) 2.04 ns.

Regarding `Cc1cc(-c2ccc(-n3c4ccccc4c4ccccc43)cc2)nc(-c2ccc(-c3ccccc3)cc2)n1`, the fluorescence lifetime is, setting by setting: (in C1CCOC1) 4.02 ns; (in CN(C)C=O) 6.66 ns; (in Cc1ccccc1) 2.27 ns; (in ClC(Cl)Cl) 3.93 ns.

As to `CC(C)(C)c1ccc(Oc2cc3c4c(cc(Oc5ccc(C(C)(C)C)cc5)c5c6c(Oc7ccc(C(C)(C)C)cc7)cc7c8c(cc(Oc9ccc(C(C)(C)C)cc9)c(c2c45)c86)C(=O)OC7=O)C(=O)OC3=O)cc1`, under “in ClC(Cl)Cl”, the fluorescence lifetime is 6.4 ns.
